Experimental data from a melting point compilation (Tetko et al.; mined from patent text by program, amines drawn as free bases though some values may be those of a salt).

SMILES | melting point [°C]
CCNC(=O)c1c(F)cccc1S(=O)C(C)(C)C (stereo not drawn) | 114 to 116
COc1cc(C(O)(C(F)(F)F)C(F)(F)F)cc(C)c1NS(C)(=O)=O | 109 to 110
CSC(=NC(=O)NC(C)C)NC(=O)NC(C)C | 125 to 127
CCCCCCCCCCCC1=NCCN1 | 82
COC(=O)c1ccc2nc(C(C)C)c(C(C)C)nc2c1 | 53 to 55
Nc1nc(SC2CCCC2)c2ncn(C3C=CC(CO)C3)c2n1 (stereo not drawn) | 167 to 169
COc1cc2c(Nc3cccc(Cl)c3F)ncnc2cc1O[C@H]1CCCN(C(=O)CN2CCN(C)CC2)C1 | 120 to 121
COC(=O)C(=C(/C)c1cc(OC)cc(OC)c1)/C(=C\c1cc(OC)cc(OC)c1)C(=O)O | 137 to 140
NC(=O)c1cnc2cc(F)c(F)cc2c1 | 261
CCN(CC)c1cccc2nc(Cc3c(Cl)cc(C(F)(F)F)cc3Cl)n(C)c12 | 150 to 151
CCN1CC(=O)N(CC)c2cc(Nc3ncc(Cl)c(Nc4ccc(OC)cc4-n4cccn4)n3)c(OC)cc2C1 | 97 to 100
CC1(C)CC(=O)c2c(C3CCCCC3)sc(-c3nccs3)c2C1 | 101 to 103
CC1(C(=O)C(C(O)C(Cl)(Cl)Cl)n2cncn2)CC1 (stereo not drawn) | 216 to 218
CCNc1c(O)ccc(N(CCO)CCO)c1[N+](=O)[O-] | 115
CCOC(=O)c1c(S(C)(=O)=O)n(C2CC2)c2c(OC)c(F)c(F)cc2c1=O | 177 to 178
CC(C)(C)c1cc(CCc2cc(F)cc(F)c2NC(=O)NC(C)(C)c2ccc(Cl)c(Cl)c2)cc(C(C)(C)C)c1O | 224 to 226
N#Cc1ccc(-c2ccc(-c3ccc(C#N)cc3)cc2)cc1 | 299 to 300

SMILES | melting point [°C]
Brc1cccc(Br)c1I | 99 to 100
CC(C)(C)C(O)C(=Cn1ccnc1)Oc1ccc(Cl)cc1 (stereo not drawn) | 141 to 143
CC(C)Cc1cnc(N)c([N+](=O)[O-])c1 | 147 to 149
CC1Cc2cccc(S(N)(=O)=O)c2O1 (stereo not drawn) | 174 to 177
CCOC(=O)C1C(=O)CC(C)(O)C(C(=O)OCC)C1c1cc(OC)c2oc(C)c(C)c2c1 (stereo not drawn) | 157 to 158
CC(C)=CC1CC(C)=C(C)C2C(=O)OC(=O)C12 (stereo not drawn) | 78 to 82
COc1cc(Br)c(C2=NC(C)(C)CO2)cc1OC | 49 to 51
CN1CCN(C2=Nc3cc(Cl)ccc3N3CCc4cccc2c43)CC1 | 154 to 156
NS(=O)(=O)c1cc2c(cc1Cl)C(=O)N(CCN1CCOCC1)C2=O | 218 to 219
CCC(C)c1nn(-c2ccc(C(F)(F)F)cn2)cc1CO (stereo not drawn) | 76 to 77
COc1c(Cl)ccc(C2=NC(C)(C)CO2)c1SC | 50 to 52
CCn1cc(-c2nnn[nH]2)c(=O)c2cc(F)c(N3CCN(c4ncccn4)CC3)c(OC(F)F)c21 | 265 to 268
CNc1c(N)c(C)nn1C | 87
COc1cc(O)ccc1[N+](=O)[O-] | 142
COCC(C#N)=Cc1ccc(OC)c(OC)c1 | 82 to 83
CCCC(=O)N1N=C(c2ccc(N)cc2)c2cc(Cl)c(Cl)cc2CC1C (stereo not drawn) | 193 to 194
OC[C@@H](O)[C@@H](O)[C@H](O)[C@H](O)CCl | 125 to 127

Next, values leading:

melting point [°C] | SMILES
193 to 195 | O=[N+]([O-])c1ccc(-c2cc3c(Oc4ccc(Cl)cc4)cncc3s2)cc1
151 to 153 | COC(=O)n1c(SCc2nccc(SCCN3CCOCC3)c2C)nc2ccccc21
103 to 109 | CCCNC(=O)C(C)Cc1ccc2c(c1)c(Cc1ccc(C(=O)O)cc1OC)cn2C(C)C (stereo not drawn)
130 to 146 | COC(=O)C1(C)CN(C(=O)Nc2ccc(Cl)cn2)N=C1c1ccc(Cl)cc1 (stereo not drawn)
250 to 252 | Cc1c(C(=O)O)sc2cc(Cc3cccnc3)ccc12
169 | C=C[C@@H](C[C@H](O)[C@H](CC1CCCCC1)NC(=O)[C@H](Cc1c[nH]cn1)NC(=O)[C@@H](CC(=O)N1CCC(C(=O)O)CC1)Cc1ccccc1)C(C)C
117 to 119 | COC(=O)NC(C)c1cccc(-c2ccc(OC)cc2)c1 (stereo not drawn)
126 to 132 | CC(C)(C)OC(=O)[C@@H]1CC[C@H](NC(=O)CNC(=O)c2ccc(OCc3ccccc3)c(C(C)(C)C)c2)[C@H](C(=O)O)C1
> 300 | N#Cc1cc2nc(O)c(O)nc2c2ccccc12
186 to 187 | CC1(CNC(=O)CCl)OCCc2c1[nH]c1ccccc21 (stereo not drawn)
186 | CCOC(=O)c1c(Cl)c2ccccc2[nH]c1=O
245 to 246 | O=C(O)c1cnccc1-c1ccccc1
105 | CCN(CC)C(=O)c1cn(-c2cccc(Cl)c2)cn1
113 to 114 | COc1cc(C(=O)c2c(N)sc3c2CCN(Cc2ccccc2)C3)ccc1OC(C)C
103 to 104 | COC(=O)CCc1cnoc1-c1ccc(-c2ccccc2)cc1
248 to 249 | COc1cccc(N(C)c2nc(NC(=O)C(C)(C)C)nc3[nH]c4ccccc4c23)c1
159 to 160 | COC(=O)CCC#Cc1ccc(C(=C2CC(C)(C)CC(C)(C)C2)c2ccc(O)cc2)cc1
203 to 204 | Cc1cccc(C)c1NC(=O)Nc1sc2ccc(Cl)cc2c1-c1ccccc1Cl
124 to 126 | COc1ccc2c(c1)c(Cc1cc(=O)n(-c3cccc(NC(C)=O)c3)[nH]1)c(C)n2C(=O)c1ccc(Cl)cc1
64 | CCOC1C(=O)NC(=O)N1CCCc1ccccc1 (stereo not drawn)

melting point [°C] | SMILES
79.5 to 80.5 | COC(=O)COc1c(F)cc(SCCNS(=O)(=O)c2ccc(Cl)cc2)cc1F
125 to 127 | Cc1cc(C)c(Cc2ccc(=O)[nH]n2)c(C)c1
155 to 157 | CC(C)(C)OC(=O)NC[C@H]1CN(c2ccc3c(c2)CCCCC3=O)C(=O)O1
96 to 100 | COc1ccc(N(N)c2nc(OCc3cccc(OC)c3)ncc2F)cc1
169 to 170 | CNc1ccccc1C(=O)n1nc(O)c2cc(N)ccc21
191 to 193 | O=S(=O)(Cl)c1ccc2oc3cc(Br)ccc3c2c1
211 to 212 | COc1cc(OC)cc(N2CCN(C(=S)Nc3cc4ccccc4nc3C)CC2)c1
200 to 202 | CCCCOC(=O)c1cc(OC(=O)OC)c2c(c1)C(=O)c1cccc(OC(=O)OC)c1C2=O
38 | C=Cc1ccc(-c2ccccc2F)cc1
217 to 218 | CCOC(=O)c1cccc(-c2coc3cc(O)c(O)cc3c2=O)c1
48 to 50 | CCc1ccc(C(=O)Sc2ccccn2)cc1
228 to 229 | Cn1c(=O)sc2nc(-c3ccccc3)cn2c1=O
172 to 174 | CS(=O)c1cc(-c2nc(=O)c3ccccc3s2)ccn1 (stereo not drawn)
150 to 152 | Fc1ccccc1-c1c(OCc2nc3n(n2)CCCC3)nn2c(-c3ccccc3F)nncc12
156 to 157 | CN1CCC(C)(O)c2cccc(CSc3nc4ccccc4[nH]3)c21 (stereo not drawn)
112 to 114 | O=C(Cl)Sc1nnnn1-c1ccccc1
62 to 68 | CCC(C(=O)C(=O)O)c1ccccc1 (stereo not drawn)
124 to 126 | CC(=O)c1ccc(OCc2ccccc2)c2c1OC(C)(C)C(=O)N2
160 to 163 | O=C1C(Cl)=C(N2CCN(C(=O)Nc3ccccc3Cl)CC2)C(=O)c2ccccc21
